According to patent US20140243286A1, “BROMODOMAIN LIGANDS CAPABLE OF DIMERIZING IN AN AQUEOUS SOLUTION, AND METHODS OF USING SAME” (Coferon, Inc., priority 2011, published 2014):
Where two headings read alike, the source gives them in different places.

How the values were obtained:
BRD3 = BRD3 (Homo sapiens, UniProt Q15059); test: Fluorescence anisotropy (FA) binding assay, BRD3
Experimental: (§1) Fluorescence Anisotropy (FA) Binding Assays.
(§2) FA assays were performed as described in Chung et al., J. Med Chem., 2011 54(11): 3827-38 except that protein concentrations were 125 nM and plates were read on a Spectramax M5 plate reader.

BRD4 = BRD4 (Homo sapiens, UniProt O60885); test: Fluorescence anisotropy (FA) binding assay, BRD4
Experimental: as §1, §2

BRD2 = BRD2 (Homo sapiens, UniProt P25440); test: Fluorescence anisotropy (FA) binding assay, BRD2
Chain of BRD2 (P25440 whole entry): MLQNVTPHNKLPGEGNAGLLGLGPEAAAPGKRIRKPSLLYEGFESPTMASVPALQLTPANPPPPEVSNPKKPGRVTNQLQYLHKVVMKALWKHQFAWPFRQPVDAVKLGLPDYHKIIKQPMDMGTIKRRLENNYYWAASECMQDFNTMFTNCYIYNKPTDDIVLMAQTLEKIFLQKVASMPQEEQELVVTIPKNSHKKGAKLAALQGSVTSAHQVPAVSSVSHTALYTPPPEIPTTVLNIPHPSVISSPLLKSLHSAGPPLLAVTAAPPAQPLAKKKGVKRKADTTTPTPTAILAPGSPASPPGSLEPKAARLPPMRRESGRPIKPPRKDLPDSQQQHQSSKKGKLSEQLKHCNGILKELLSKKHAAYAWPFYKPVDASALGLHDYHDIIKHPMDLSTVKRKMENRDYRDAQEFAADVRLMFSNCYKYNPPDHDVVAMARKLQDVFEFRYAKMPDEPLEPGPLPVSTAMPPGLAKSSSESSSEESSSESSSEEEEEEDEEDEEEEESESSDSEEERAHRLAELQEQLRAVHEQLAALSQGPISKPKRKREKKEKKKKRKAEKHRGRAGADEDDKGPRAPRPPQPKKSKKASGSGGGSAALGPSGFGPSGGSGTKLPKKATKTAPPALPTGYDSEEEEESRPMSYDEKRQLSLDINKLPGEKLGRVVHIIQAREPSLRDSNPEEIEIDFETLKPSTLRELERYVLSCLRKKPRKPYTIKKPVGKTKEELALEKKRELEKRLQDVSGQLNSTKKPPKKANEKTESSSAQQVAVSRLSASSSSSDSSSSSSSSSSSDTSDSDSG
Experimental: as §1, §2

[1] = BRD3, protein 125 nM, read-out: IC50 range (FA assay) BRD3, BRD-N monomers
[2] = BRD4, protein 125 nM, read-out: IC50 range (FA assay) BRD4, BRD-N monomers
[3] = BRD2, protein 125 nM, read-out: IC50 range (FA assay) BRD2, BRD-N monomers
[4] = BRD3, protein 125 nM, read-out: IC50 range (FA assay) BRD3, BRD-E monomers
[5] = BRD4, protein 125 nM, read-out: IC50 range (FA assay) BRD4, BRD-E monomers
[6] = BRD2, protein 125 nM, read-out: IC50 range (FA assay) BRD2, BRD-E monomers

Chain of BRD3 (Q15059 whole entry): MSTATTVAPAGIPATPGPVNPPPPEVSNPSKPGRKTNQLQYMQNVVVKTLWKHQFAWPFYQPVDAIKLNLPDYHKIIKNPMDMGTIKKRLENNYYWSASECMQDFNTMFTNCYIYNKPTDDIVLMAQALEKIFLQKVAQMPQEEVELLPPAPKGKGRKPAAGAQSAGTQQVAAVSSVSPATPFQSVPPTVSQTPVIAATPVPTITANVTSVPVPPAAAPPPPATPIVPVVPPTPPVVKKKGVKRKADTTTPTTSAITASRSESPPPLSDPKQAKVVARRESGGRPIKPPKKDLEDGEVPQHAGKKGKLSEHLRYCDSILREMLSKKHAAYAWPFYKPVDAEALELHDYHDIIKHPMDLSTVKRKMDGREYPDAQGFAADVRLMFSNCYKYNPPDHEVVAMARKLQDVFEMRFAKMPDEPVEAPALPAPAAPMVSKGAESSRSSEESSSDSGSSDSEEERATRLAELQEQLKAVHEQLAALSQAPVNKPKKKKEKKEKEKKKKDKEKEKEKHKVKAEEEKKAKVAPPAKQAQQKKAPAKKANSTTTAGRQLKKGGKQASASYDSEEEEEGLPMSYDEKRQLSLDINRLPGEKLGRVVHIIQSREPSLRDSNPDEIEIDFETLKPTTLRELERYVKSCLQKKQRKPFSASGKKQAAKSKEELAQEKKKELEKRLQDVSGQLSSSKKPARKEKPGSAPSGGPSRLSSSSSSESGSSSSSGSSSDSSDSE

SMILES | IC50 (BRD3; [1]) [µM] | IC50 (BRD4; [2]) [µM] | IC50 (BRD2; [3]) [µM] | IC50 (BRD3; [4]) [µM] | IC50 (BRD4; [5]) [µM] | IC50 (BRD2; [6]) [µM] | also measured
COc1ccc2c(c1)C(c1ccc(Cl)cc1)=N[C@@H](CC(=O)NCCCCCNC(=O)c1cccc(O)c1O)c1nnc(C)n1-2 [BRD-N-08, N-(5-(2-((4S)-6-(4-chlorophenyl)-8-methoxy-1-methyl-4H-benzo[f][1,2,4]triazolo[4,3-a][1,4]diazepin-4-yl)acetamido)pentyl)-2,3-dihydroxybenzamide] | 0.05 to 1 | 0.05 to 1 | 0.05 to 1 |  |  |  | 
COc1ccc2c(c1)C(c1ccc(Cl)cc1)=N[C@@H](CC(=O)NCc1ccc(O)c(O)c1)c1nnc(C)n1-2 [BRD-N-09, (S)-2-(6-(4-chlorophenyl)-8-methoxy-1-methyl-4H-benzo[f][1,2,4]triazolo[4,3-a][1,4]diazepin-4-yl)-N-(3,4-dihydroxybenzyl)acetamide] | 0.05 to 1 | 0.05 to 1 | 0.05 to 1 |  |  |  | 
CCNC(=O)C[C@@H]1N=C(c2ccc(Cl)cc2)c2cc(OCCCCNC(=O)c3cccc(B(O)O)c3)ccc2-n2c(C)nnc21 [BRD-E-25, (S)-(3-((4-((6-(4-chlorophenyl)-4-(2-(ethylamino)-2-oxoethyl)-1-methyl-4H-benzo[f][1,2,4]triazolo[4,3-a][1,4]diazepin-8-yl)oxy)butyl)carbamoyl)phenyl)boronic acid] |  |  |  | 1 to 30 | 1 to 30 | 1 to 30 | 
COc1ccc2c(c1)C(c1ccc(Cl)cc1)=N[C@@H](CC(=O)NCc1ccc(B(O)O)cc1)c1nnc(C)n1-2 [BRD-E-09, (S)-(4-((2-(6-(4-chlorophenyl)-8-methoxy-1-methyl-4H-benzo[f][1,2,4]triazolo[4,3-a][1,4]diazepin-4-yl)acetamido)methyl)phenyl)boronic acid] |  |  |  | 0.05 to 1 | 0.05 to 1 | 0.05 to 1 | 
CCNC(=O)C[C@@H]1N=C(c2ccc(Cl)cc2)c2cc(OCC(=O)Nc3ccc(O)c(O)c3)ccc2-n2c(C)nnc21 [BRD-N-16, (S)-2-((6-(4-chlorophenyl)-4-(2-(ethylamino)-2-oxoethyl)-1-methyl-4H-benzo[f][1,2,4]triazolo[4,3-a][1,4]diazepin-8-yl)oxy)-N-(3,4-dihydroxyphenyl)acetamide] | 0.05 to 1 | 0.05 to 1 | 0.05 to 1 |  |  |  | 
COc1ccc2c(c1)C(c1ccc(Cl)cc1)=N[C@@H](CC(=O)NCCCCCNC(=O)c1ccc(B(O)O)cc1)c1nnc(C)n1-2 [BRD-E-07, (4-((5-(2-((4S)-6-(4-chlorophenyl)-8-methoxy-1-methyl-4H-benzo[f][1,2,4]triazolo[4,3-a][1,4]diazepin-4-yl)acetamido)pentyl)carbamoyl)phenyl)-boronic acid] |  |  |  |  |  |  | IC50 (BRD3): 0.05 to 1 µM; IC50 (BRD4): 0.05 to 1 µM; IC50 (BRD2): 0.05 to 1 µM
CCNC(=O)C[C@@H]1N=C(c2ccc(Cl)cc2)c2cc(OCCCNC(=O)c3ccc(O)c(O)c3)ccc2-n2c(C)nnc21 [BRD-N-26, (S)—N-(3-((6-(4-chlorophenyl)-4-(2-(ethylamino)-2-oxoethyl)-1-methyl-4H-benzo[f][1,2,4]triazolo[4,3-a][1,4]diazepin-8-yl)oxy)propyl)-3,4-dihydroxybenzaamide] | 1 to 30 | 1 to 30 | 1 to 30 |  |  |  | 
CCNC(=O)C[C@@H]1N=C(c2ccc(Cl)cc2)c2cc(OCCNC(=O)c3cccc(O)c3O)ccc2-n2c(C)nnc21 [BRD-N-25, (S)—N-(2-((6-(4-chlorophenyl)-4-(2-(ethylamino)-2-oxoethyl)-1-methyl-4H-benzo[f][1,2,4]triazolo[4,3-a][1,4]diazepin-8-yl)oxy)ethyl)-2,3-dihydroxybenzamide] | 0.05 to 1 | 0.05 to 1 | 1 to 30 |  |  |  | 
CCNC(=O)C[C@@H]1N=C(c2ccc(Cl)cc2)c2cc(OCCNC(=O)c3cccc(B(O)O)c3)ccc2-n2c(C)nnc21 [BRD-E-21, (S)-(3-((2-((6-(4-chlorophenyl)-4-(2-(ethylamino)-2-oxoethyl)-1-methyl-4H-benzo[f][1,2,4]triazolo[4,3-a]diazepin-8-yl)oxy)ethyl)carbamoyl)phenyl)boronic acid] |  |  |  | 0.05 to 1 | 0.05 to 1 | 0.05 to 1 | 
COc1ccc2c(c1)C(c1ccc(Cl)cc1)=N[C@@H](CC(=O)NCCc1ccc(B(O)O)cc1)c1nnc(C)n1-2 [BRD-E-13, (S)-(4-(2-(2-(6-(4-chlorophenyl)-8-methoxy-1-methyl-4H-benzo[f][1,2,4]triazolo[4,3-a][1,4]diazepin-4-yl)acetamido)ethyl)phenyl)boronic acid] |  |  |  | 0.05 to 1 | 0.05 to 1 | 1 to 30 | 
COc1ccc2c(c1)C(c1ccc(Cl)cc1)=N[C@@H](CC(=O)NCCNC(=O)c1ccc(O)c(O)c1)c1nnc(C)n1-2 [BRD-N-01, N-(2-(2-((4S)-6-(4-chlorophenyl)-8-methoxy-1-methyl-4H-benzo[f][1,2,4]triazolo[4,3-a][1,4]diazepin-4-yl)acetamido)ethyl)-3,4-dihydroxybenzamide] | 0.05 to 1 | 0.05 to 1 | 0.05 to 1 |  |  |  | 
COc1ccc2c(c1)C(c1ccc(Cl)cc1)=N[C@@H](CC(=O)NCCc1cccc(O)c1O)c1nnc(C)n1-2 [BRD-N-12, (S)-2-(6-(4-chlorophenyl)-8-methoxy-1-methyl-4H-benzo[f][1,2,4]triazolo[4,3-a][1,4]diazepin-4-yl)-N-(2,3-dihydroxyphenethyl)acetamide] | 0.05 to 1 | 0.05 to 1 | 0.05 to 1 |  |  |  | 
COc1ccc2c(c1)C(c1ccc(Cl)cc1)=N[C@@H](CC(=O)NCc1cccc(O)c1O)c1nnc(C)n1-2 [BRD-N-11, (S)-2-(6-(4-chlorophenyl)-8-methoxy-1-methyl-4H-benzo[f][1,2,4]triazolo[4,3-a][1,4]diazepin-4-yl)-N-(2,3-dihydroxybenzyl)acetamide] | 0.05 to 1 | 0.05 to 1 | 0.05 to 1 |  |  |  | 
CCNC(=O)C[C@@H]1N=C(c2ccc(Cl)cc2)c2cc(OCCCC(=O)Nc3ccc(O)c(O)c3)ccc2-n2c(C)nnc21 [BRD-N-20, (S)-4-((6-(4-chlorophenyl)-4-(2-(ethylamino)-2-oxoethyl)-1-methyl-4H-benzo[f][1,2,4]triazolo[4,3-a][1,4]diazepin-8-yl)oxy)-N-(3,4-dihydroxyphenyl)butanamide] | 0.05 to 1 | 0.05 to 1 | 0.05 to 1 |  |  |  | 
COc1ccc2c(c1)C(c1ccc(Cl)cc1)=N[C@@H](CC(=O)NCCNC(=O)c1ccc(B(O)O)cc1)c1nnc(C)n1-2 [BRD-E-01, (4-((2-(2-((4S)-6-(4-chlorophenyl)-8-methoxy-1-methyl-4H-benzo[f][1,2,4]triazolo[4,3-a][1,4]diazepin-4-yl)acetamido)ethyl)carbamoyl)phenyl)boronic acid] |  |  |  |  |  |  | IC50 (BRD3): 0.05 to 1 µM; IC50 (BRD4): 0.05 to 1 µM; IC50 (BRD2): 0.05 to 1 µM
CCNC(=O)C[C@@H]1N=C(c2ccc(Cl)cc2)c2cc(OCC(=O)Nc3cccc(B(O)O)c3)ccc2-n2c(C)nnc21 [BRD-E-15, (S)-(3-(2-((6-(4-chlorophenyl)-4-(2-(ethylamino)-2-oxoethyl)-1-methyl-4H-benzo[f][1,2,4]triazolo[4,3-a][1,4]diazepin-8-yl)oxy)acetamido)phenyl)boronic acid] |  |  |  | 0.05 to 1 | 0.05 to 1 | 1 to 30 | 
CCNC(=O)C[C@@H]1N=C(c2ccc(Cl)cc2)c2cc(OCCCC(=O)Nc3cccc(O)c3O)ccc2-n2c(C)nnc21 [BRD-N-21, (S)-4-((6-(4-chlorophenyl)-4-(2-(ethylamino)-2-oxoethyl)-1-methyl-4H-benzo[f][1,2,4]triazolo[4,3-a][1,4]diazepin-8-yl)oxy)-N-(2,3-dihydroxyphenyl)butanamide] | 0.05 to 1 | 0.05 to 1 | 1 to 30 |  |  |  | 
COc1ccc2c(c1)C(c1ccc(Cl)cc1)=N[C@@H](CC(=O)NCCCCNC(=O)c1cccc(O)c1O)c1nnc(C)n1-2 [BRD-N-06, N-(4-(2-((4S)-6-(4-chlorophenyl)-8-methoxy-1-methyl-4H-benzo[f][1,2,4]triazolo[4,3-a][1,4]diazepin-4-yl)acetamido)butyl)-2,3-dihydroxybenzamide] |  |  |  |  |  |  | IC50 (BRD3): 1 to 30 µM; IC50 (BRD4): 0.05 to 1 µM; IC50 (BRD2): 0.05 to 1 µM
CCNC(=O)C[C@@H]1N=C(c2ccc(Cl)cc2)c2cc(OCCCNC(=O)c3cccc(O)c3O)ccc2-n2c(C)nnc21 [BRD-N-27, (S)—N-(3-((6-(4-chlorophenyl)-4-(2-(ethylamino)-2-oxoethyl)-1-methyl-4H-benzo[f][1,2,4]triazolo[4,3-a][1,4]diazepin-8-yl)oxy)propyl)-2,3-dihydroxybenzamide] | 0.05 to 1 | 0.05 to 1 | 1 to 30 |  |  |  | 
COc1ccc2c(c1)C(c1ccc(Cl)cc1)=N[C@@H](CC(=O)NCCCCNC(=O)c1ccc(O)c(O)c1)c1nnc(C)n1-2 [BRD-N-05, N-(4-(2-((4S)-6-(4-chlorophenyl)-8-methoxy-1-methyl-4H-benzo[f][1,2,4]triazolo[4,3-a][1,4]diazepin-4-yl)acetamido)butyl)-3,4-dihydroxybenzamide] |  |  |  |  |  |  | IC50 (BRD3): 0.05 to 1 µM; IC50 (BRD4): 0.05 to 1 µM; IC50 (BRD2): 0.05 to 1 µM
COc1ccc2c(c1)C(c1ccc(Cl)cc1)=N[C@@H](CC(=O)NCCCNC(=O)c1ccc(B(O)O)cc1)c1nnc(C)n1-2 [BRD-E-03, (4-((3-(2-((4S)-6-(4-chlorophenyl)-8-methoxy-1-methyl-4H-benzo[f][1,2,4]triazolo[4,3-a][1,4]diazepin-4-yl)acetamido)propyl)carbamoyl)phenyl)-boronic acid] |  |  |  | 0.05 to 1 | 0.05 to 1 | 0.05 to 1 | 
COc1ccc2c(c1)C(c1ccc(Cl)cc1)=N[C@@H](CC(=O)NCCCCNC(=O)c1ccc(B(O)O)cc1)c1nnc(C)n1-2 [BRD-E-05, (4-((4-(2-((4S)-6-(4-chlorophenyl)-8-methoxy-1-methyl-4H-benzo[f][1,2,4]triazolo[4,3-a][1,4]diazepin-4-yl)acetamido)butyl)carbamoyl)phenyl)boronic acid] |  |  |  | 0.05 to 1 | 0.05 to 1 | 0.05 to 1 | 
